Values belong to the compound of their own block, whether it stands above or below them. The source made the active and inactive calls. The rule behind the calls is not given here.
Legend:
hERG (KCNH2) = hERG (KCNH2) (Homo sapiens, UniProt Q12809); assay: Inhibition of human ERG at 10 uM relative to control
[1] = AUC (0 to 6 hrs) in CD1 mouse at 10 mg/kg, po; type: ADME, organism-based; design: time < 6 hr, route oral, dose 10 mg/kg; details: in vivo
[2] = Toxicity in Crl:CD1-Foxn1nu mouse xenografted with human LXFS615 cells assessed as weight loss at 5 mg/kg, po dosed daily for 30 days relative to control; type: organism-based; details: in vivo, 720 h, time 30 day
Kasumi 1 = assay: Anti-proliferative activity in human Kasumi 1 cells incubated for 168 hrs by MTS assay; type: functional, cell-based; details: Kasumi 1, 168 h
[3] = AUC (0 to 24 hrs) in CD1 mouse at 5 mg/kg, po; type: ADME, organism-based; design: time < 24 hr, route oral, dose 5 mg/kg; details: in vivo
[4] = Clearance in CD1 mouse at 5 mg/kg, iv; type: ADME, organism-based; details: in vivo
Mus musculus [5] = assay: Inhibition of GRP mRNA expression in Crl:CD1-Foxn1nu mouse xenografted with human NCI-H1417 cells at 5 mg/kg, po QD for 4 days and measured 24 hrs post last dose by qPCR analysis; type: functional, organism-based; details: time 5.0 day
Mus musculus [6] = assay: Inhibition of GRP mRNA expression in Crl:CD1-Foxn1nu mouse xenografted with human NCI-H1417 cells at 2.5 mg/kg, po QD for 4 days and measured 24 hrs post last dose by qPCR analysis; type: functional, organism-based; details: time 5.0 day
[7] = target: T1, Lysine-specific histone demethylase 2 (Homo sapiens) (UniProt Q8NB78); assay: Inhibition of LSD2 (unknown origin) at; details: dose microM <10
T1 sequence (whole entry): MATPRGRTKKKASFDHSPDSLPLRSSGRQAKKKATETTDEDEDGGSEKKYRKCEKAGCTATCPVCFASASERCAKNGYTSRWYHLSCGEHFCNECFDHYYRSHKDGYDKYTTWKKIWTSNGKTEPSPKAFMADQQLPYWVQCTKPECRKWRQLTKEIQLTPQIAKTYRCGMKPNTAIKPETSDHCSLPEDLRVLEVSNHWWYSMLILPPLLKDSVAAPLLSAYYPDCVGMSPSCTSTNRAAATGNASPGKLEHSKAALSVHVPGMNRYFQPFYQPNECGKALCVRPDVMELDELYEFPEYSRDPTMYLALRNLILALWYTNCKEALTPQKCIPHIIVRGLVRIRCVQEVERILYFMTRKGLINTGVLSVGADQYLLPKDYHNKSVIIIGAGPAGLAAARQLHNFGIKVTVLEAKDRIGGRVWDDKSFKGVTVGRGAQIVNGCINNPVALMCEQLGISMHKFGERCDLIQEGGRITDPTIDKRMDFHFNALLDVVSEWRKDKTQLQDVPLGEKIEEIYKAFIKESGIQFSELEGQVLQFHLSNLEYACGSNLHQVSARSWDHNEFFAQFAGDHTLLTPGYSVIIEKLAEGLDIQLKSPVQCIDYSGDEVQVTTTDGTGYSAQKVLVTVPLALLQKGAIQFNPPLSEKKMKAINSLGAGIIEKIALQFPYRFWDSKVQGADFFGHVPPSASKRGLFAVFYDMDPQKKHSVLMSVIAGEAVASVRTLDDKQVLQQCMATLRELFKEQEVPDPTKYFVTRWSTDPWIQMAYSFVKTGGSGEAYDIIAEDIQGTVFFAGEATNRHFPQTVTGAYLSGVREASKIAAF

NCI-H1417 [8] = assay: Antitumor activity against human NCI-H1417 cells xenografted in Crl:CD1-Foxn1nu mouse assessed as tumor growth regression level at 5 mg/kg, po QD for 65 days relative to control; type: functional; details: time 65 day
[9] = Volume of distribution at steady state in CD1 mouse at 5 mg/kg, iv; type: ADME, organism-based; details: in vivo, read-out: Vdss
[10] = Cmax in CD1 mouse at 5 mg/kg, po; type: ADME, organism-based; design: route oral, dose 5 mg/kg; details: in vivo
NCI-H1417 [11] = assay: Antitumor activity against human NCI-H1417 cells xenografted in Crl:CD1-Foxn1nu mouse assessed as tumor growth regression level at 2.5 mg/kg, po QD for 65 days relative to control; type: functional; details: time 65 day
[12] = Protein binding in mouse plasma; type: ADME, cell-free; details: read-out: PPB (converted)
Mus musculus [13] = assay: Induction of in-vivo cell differentiation in Crl:CD1-Foxn1nu mouse patient-derived xenograft model xenografted with human LU2514 assessed as increase in apoptotic bodies at 10 mg/kg, po QD for 28 days and measured 15 days post last dose by H and E staining based assay; type: functional, organism-based; details: time 43.0 day
[14] = Half life in CD1 mouse at 5 mg/kg, iv; type: ADME, organism-based; details: in vivo
Mus musculus [15] = assay: Induction of in-vivo cell differentiation in Crl:CD1-Foxn1nu mouse patient-derived xenograft model xenografted with human LU2514 assessed as loosening of cellular structure at 10 mg/kg, po QD for 28 days and measured 15 days post last dose by H and E staining based assay; type: functional, organism-based; details: time 43.0 day
[16] = Oral bioavailability in CD1 mouse at 5 mg/kg; type: ADME, organism-based; details: in vivo
[17] = Antitumor activity against human LU2514 xenografted in Crl:CD1-Foxn1nu mouse patient-derived xenograft model assessed as inhibition of tumor growth at 10 mg/kg, po QD for 28 days relative to control; type: functional; details: 672 h, time 28 day, read-out: TGI
Mus musculus [18] = assay: Induction of in-vivo cell differentiation in Crl:CD1-Foxn1nu mouse patient-derived xenograft model xenografted with human LU2514 assessed as reduction in nucleus to cytoplasm ratio at 10 mg/kg, po QD for 28 days and measured 15 days post last dose by H and E staining based assay; type: functional, organism-based; details: time 43.0 day
[19] = target: T2, Amine oxidase [flavin-containing] B (Homo sapiens, UniProt P27338); assay: Inhibition of MAOB (unknown origin) at; details: dose <10 µM
T2 sequence (P27338 whole entry): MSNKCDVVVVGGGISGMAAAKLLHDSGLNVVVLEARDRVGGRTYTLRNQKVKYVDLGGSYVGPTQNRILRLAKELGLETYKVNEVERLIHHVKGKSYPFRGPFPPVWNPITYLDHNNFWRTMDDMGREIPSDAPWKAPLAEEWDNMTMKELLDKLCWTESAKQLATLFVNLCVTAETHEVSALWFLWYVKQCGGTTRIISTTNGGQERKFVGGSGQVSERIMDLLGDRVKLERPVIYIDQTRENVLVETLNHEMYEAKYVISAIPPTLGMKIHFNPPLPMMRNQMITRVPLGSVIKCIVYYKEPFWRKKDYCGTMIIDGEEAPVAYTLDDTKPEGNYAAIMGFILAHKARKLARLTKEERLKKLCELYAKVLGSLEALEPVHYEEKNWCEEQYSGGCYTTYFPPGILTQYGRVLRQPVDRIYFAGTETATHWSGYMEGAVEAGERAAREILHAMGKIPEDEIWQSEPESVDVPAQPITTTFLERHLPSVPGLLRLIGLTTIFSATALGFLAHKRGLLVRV

[20] = target: T3, Amine oxidase [flavin-containing] A (Homo sapiens, UniProt P21397); assay: Inhibition of MAOA (unknown origin) at; details: dose <10 µM
T3 sequence (P21397 whole entry): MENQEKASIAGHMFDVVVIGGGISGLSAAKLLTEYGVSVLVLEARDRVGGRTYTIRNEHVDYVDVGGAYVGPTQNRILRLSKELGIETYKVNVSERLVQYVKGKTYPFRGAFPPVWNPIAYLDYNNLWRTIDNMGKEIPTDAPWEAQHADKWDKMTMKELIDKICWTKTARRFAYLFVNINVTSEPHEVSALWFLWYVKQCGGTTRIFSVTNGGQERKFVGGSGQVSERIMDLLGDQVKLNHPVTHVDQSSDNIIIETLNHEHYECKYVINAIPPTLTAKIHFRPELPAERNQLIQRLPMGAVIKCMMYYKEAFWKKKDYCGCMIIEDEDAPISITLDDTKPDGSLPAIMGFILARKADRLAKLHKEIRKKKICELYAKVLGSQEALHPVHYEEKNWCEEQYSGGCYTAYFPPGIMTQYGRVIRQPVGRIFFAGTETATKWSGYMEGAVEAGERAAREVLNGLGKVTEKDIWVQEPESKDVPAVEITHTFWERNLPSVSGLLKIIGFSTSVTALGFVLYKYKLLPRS

[21] = Toxicity in Crl:CD1-Foxn1nu mouse xenografted with human NCI-H1417 cells assessed as weight gain level at 2.5 to 5 mg/kg, po QD for 65 days relative to control; type: organism-based; details: in vivo, 1560 h, dose 2.5-5 mg/kg, time 65 day
IMR-90 = assay: Anti-proliferative activity in human IMR-90 cells incubated for 168 hrs by MTS assay; type: functional, cell-based; details: IMR-90, 168 h
[22] = Antitumor activity against human LU2514 xenografted in Crl:CD1-Foxn1nu mouse patient-derived xenograft model assessed as inhibition of tumor growth at 5 mg/kg, po QD for 28 days relative to control; type: functional; details: 672 h, time 28 day, read-out: TGI
[23] = Antitumor activity against human LXFS615 xenografted in Crl:CD1-Foxn1nu mouse patient-derived xenograft model assessed as inhibition of tumor growth at 5 mg/kg, po dosed daily for 30 days relative to control; type: functional; details: 720 h, time 30 day, read-out: TGI

Sequence of hERG (KCNH2) (Q12809 whole entry): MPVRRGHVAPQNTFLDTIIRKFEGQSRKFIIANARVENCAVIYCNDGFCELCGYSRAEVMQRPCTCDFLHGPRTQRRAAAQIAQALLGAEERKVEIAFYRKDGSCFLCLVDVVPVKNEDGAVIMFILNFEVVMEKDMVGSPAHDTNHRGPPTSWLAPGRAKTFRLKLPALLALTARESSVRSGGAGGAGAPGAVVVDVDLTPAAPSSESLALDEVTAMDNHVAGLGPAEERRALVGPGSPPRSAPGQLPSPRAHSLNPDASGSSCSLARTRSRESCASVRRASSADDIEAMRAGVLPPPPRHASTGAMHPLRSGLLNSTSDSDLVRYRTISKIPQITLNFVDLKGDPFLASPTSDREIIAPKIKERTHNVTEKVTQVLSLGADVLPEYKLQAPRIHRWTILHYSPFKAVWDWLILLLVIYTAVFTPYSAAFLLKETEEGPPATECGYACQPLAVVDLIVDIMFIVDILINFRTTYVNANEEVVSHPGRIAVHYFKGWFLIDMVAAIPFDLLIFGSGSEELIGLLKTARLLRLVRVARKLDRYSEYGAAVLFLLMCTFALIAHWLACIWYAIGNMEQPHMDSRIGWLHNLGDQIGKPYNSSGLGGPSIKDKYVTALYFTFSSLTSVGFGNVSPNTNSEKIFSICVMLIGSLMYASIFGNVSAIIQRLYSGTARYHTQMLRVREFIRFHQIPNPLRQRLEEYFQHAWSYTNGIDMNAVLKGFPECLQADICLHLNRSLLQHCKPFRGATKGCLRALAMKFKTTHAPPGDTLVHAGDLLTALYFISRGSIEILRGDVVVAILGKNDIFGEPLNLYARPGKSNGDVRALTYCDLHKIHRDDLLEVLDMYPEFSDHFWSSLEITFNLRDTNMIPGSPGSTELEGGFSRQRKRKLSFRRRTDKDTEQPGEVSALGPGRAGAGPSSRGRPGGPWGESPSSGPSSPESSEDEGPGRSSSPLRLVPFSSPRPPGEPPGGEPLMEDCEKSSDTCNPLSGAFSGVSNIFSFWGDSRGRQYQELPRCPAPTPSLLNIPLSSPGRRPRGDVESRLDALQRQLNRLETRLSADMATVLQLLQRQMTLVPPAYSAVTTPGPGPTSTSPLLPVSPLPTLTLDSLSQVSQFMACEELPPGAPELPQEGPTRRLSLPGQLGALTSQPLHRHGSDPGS

SMILES: Cc1ccc(-c2c(-c3ccc(C#N)cc3)nc(N3CCC(N)CC3)c(=O)n2C)cc1
inhibition at 10 µM (hERG (KCNH2)): 95%
AUC(0-t) at 6 h [1]: 7.3 µM·h

SMILES: COc1ccc(-c2c(-c3ccc(C#N)cc3)nc(N3CCC(N)CC3)n(C)c2=O)cc1F
inhibition at 10 µM (hERG (KCNH2)): 48%
AUC(0-t) at 6 h [1]: 3 µM·h

SMILES: Cc1ccc(-c2cnc(N3CC[C@@H]4NCC[C@@H]4C3)nc2-c2ccc(C#N)cc2)cc1
inhibition at 10 µM (hERG (KCNH2)): 95%
AUC(0-t) at 6 h [1]: 14.5 µM·h

SMILES: Cc1ccc(-c2c(-c3ccc(C#N)cc3)nc(N3CCC(N)CC3)n(C)c2=O)cc1
inhibition at 10 µM (hERG (KCNH2)): 83%
AUC(0-t) at 6 h [1]: 10.5 µM·h

SMILES: Cc1ccc(-c2cnc(C[C@H]3CCNC3)nc2-c2ccc(C#N)cc2)cc1
inhibition at 10 µM (hERG (KCNH2)): 91%
AUC(0-t) at 6 h [1]: 1 µM·h

Now from value to compound, other results behind:

AUC(0-t) at 6 h [1]: 6.1 µM·h
SMILES: COc1ccc(-c2c(-c3ccc(C#N)cc3)nc(N3CCC(N)CC3)n(C)c2=O)cc1
inhibition at 10 µM (hERG (KCNH2)): 67%

AUC(0-t) at 24 h [3]: 1.8 µM·h
clearance [4]: 32.4 mL/min/kg
inhibition [7]: inactive
Vd [9]: 7.5 L/kg
Cmax [10]: 360 nM
fraction unbound [12]: 0.08
half-life [14]: 2 h
bioavailability [16]: 32%
AUC(0-t) at 6 h [1]: 2.6 µM·h
inhibition (INH) [19]: Not Active
inhibition (INH) [20]: Not Active
SMILES: COc1ccc(-c2c(-c3ccc(C#N)c(F)c3)nc(N3CCC(N)CC3)n(C)c2=O)cc1F.O=S(=O)(O)c1ccccc1 [PULRODEMSTAT BESILATE]
Activity [2]: < 1%
EC50 (Kasumi 1): 2 nM
inhibition at 10 µM (hERG (KCNH2)): 59%
inhibition (Mus musculus [5]): Active
inhibition (Mus musculus [6]): Active
Activity (NCI-H1417 [8]): 178%
Activity (NCI-H1417 [11]): 159%
Activity (Mus musculus [13]): Active
Activity (Mus musculus [15]): Active
inhibition in vivo at 10 mg/kg [17]: 56%
Activity (Mus musculus [18]): Active
Activity [21]: <= 7%
EC50 (IMR-90): > 10000 nM
inhibition in vivo at 5 mg/kg [22]: 39%
inhibition in vivo at 5 mg/kg [23]: 78%

Source: ChEMBL document CHEMBL4699559, “Discovery of CC-90011: A Potent and Selective Reversible Inhibitor of Lysine Specific Demethylase 1 (LSD1)” (J Med Chem, 2020)
